Assay results reported in patent US11236302B2, “Methods and compositions for producing stem cell derived dopaminergic cells for use in treatment of neurodegenerative diseases” (BIOLAMINA AB, priority 2015, dated 2022).

Key:
[1] = test system: RC17 hESCs; test: Adherent differentiation of ventral mesencephalon progenitors on full-length laminin subtypes, day 0-11; format: cell-based, human; conditions: for yield of neural cells relative to a standard yield of 100%: laminin as coating, day 0-11 of the protocol
Excerpt: To develop a GMP-compatible differentiation protocol for high and reproducible yield of caudilised mesDA ventral mesencephalon progenitors that would result in good graft outcome, a fully GMP-derived hES cell line RC17 from Roslin cells (hPS Creg #RCe021-A) was used. Previous research grade ventral mesencephalon differentiation protocols have implemented steps of embryoid body (EB) formation or culturing on MATRIGEL®, both of which pose problems in GMP adaptation due to difficulties in reproducibility and the content of undefined animal-derived component, respectively.
Relative to a standard yield of 100%, LN-111 yielded 170%, LN-421 yielded 294%, LN-511 yielded 223%, and LN-521 yielded 208%. RC17 cells were differentiated according to the methods described herein, but on plates that were coated with laminin-121 instead of laminin-111. FIG. 8C compares the yields, and the yields are about equal to each other, i.e. LN-121 works about as well as LN-111 as a substrate.

[2] = test system: undifferentiated hESCs; test: Plating of undifferentiated hESCs on laminin matrix in pluripotency medium or differentiation medium; format: cell-based, human; conditions: laminin as matrix
Description: When the same number of cells was plated onto LN-111 in B27 medium, the cultures remained adherent and grew to confluency after 7 days of differentiation while showing rapid downregulation of pluripotency markers.

| Substance | yield of neural cells relative to a standard yield of 100% [1] | support of growth of pluripotent stem cells versus neural cells [2] | yield of dopaminergic cells on LN-121 compared with LN-111 ([1]; RC17 cells, plates coated with laminin-121 instead of laminin-111) |
| --- | --- | --- | --- |
| LN-421: the protein formed by joining α4, β2 and γ1 chains together | 294% | – | – |
| LN-511: the protein formed by joining α5, β1 and γ1 chains together | 223% | efficiently support growth of hPSCs | – |
| LN-521: the protein formed by joining α5, β2 and γ1 chains together | 208% | efficiently support growth of hPSCs | – |
| LN-121: the protein formed by joining α1, β2 and γ1 chains together | – | – | about equal |
| LN-111: the protein formed by joining α1, β1 and γ1 chains together | 170% | selectively supported the growth of neural cells but not pluripotent stem cells | – |
